In patent publication US20260372303A1, “5-Fluoro-4-Imino-3-Methyl-1-Tosyl-3, 4-Dihydropyrimidin-2(1H) -One for Fungicide-Resistant Fungus” (priority 2022, published 2026):

What was measured:
Type in all cases: in vivo
[1] = test system: Zymoseptoria tritici strain Zt 99; assay: In planta preventive efficacy on wheat cv. Alixan against Zymoseptoria tritici strain Zt 99; conditions: for Disease Severity Intensity: % of length of 2nd leaf blade, preventive 24 h; for AUDPC: control 1352.9
Protocol: (§1) A series of experiments were conducted to evaluate the efficacy of flumetylsulforim (ADF-16) for treating different strains of Zymoseptoria tritici in comparison with commercially available fungicides. Table 1 describes the Z. tritici strains used in this study and Table 2 describes the fungicides used in this study.
(§2) Winter wheat plants cv. Alixan (Limagrain) at the BBCH 12 growth stage were treated preventively with sterile distilled water (control), ADF-16, penthiopyrad, metconazole or tebuconazole at the rates described in Table 2 with a hand sprayer at 2 bars.
(§3) After treatment, wheat plants were left to dry at room temperature for 1 hour and then placed in a climatic chamber: temperature of 24 °C day/18 °C night-photoperiod of 16 h light/8 h dark and a relative humidity of 65%.
(§4) Untreated or treated whole wheat plants were inoculated 24-hours post-treatment with a calibrated pycnospore suspension of Z. tritici strains Zt StA, Zt 61, Zt 99, Zt 20, Zt 19-52, and Zt 38-02. Three replicates (pots) of 6 wheat plants each were used for each condition tested.
(§5) After inoculation, pots were transferred in a climatic chamber: temperature of 20 °C day/17 °C night—photoperiod of 16 h light/8 h dark and controlled relative humidity.
(§6) Disease assessments were carried out at 15 days post inoculation (dpi), 21 dpi and 28 dpi by measuring the length of the necrosis on the second leaf blade. The intensity of infection was then determined as a percentage of the total length of 2nd leaf blade.
(§7) The fungicide efficacies were determined from the Area Under the Disease Progress Curve (AUDPC) values and expressed as a percentage of the untreated control.
(§8) The AUDPC is a quantitative measure of disease intensity over time. The most commonly used method for estimating the AUDPC, the trapezoidal method, is performed by multiplying the average disease intensity between each pair of adjacent timepoints by the corresponding time interval and this for each time interval. The AUDPC is determined with the following formula by adding all of the trapezoids:
(§9) [formula] • yi=disease severity at the ith observation • ti=time (days) at the ith observation • N=total number of observations

[2] = test system: Zymoseptoria tritici strain Zt StA; assay: In planta preventive efficacy on wheat cv. Alixan against Zymoseptoria tritici strain Zt StA (control strain, sensitive); conditions: for Disease Severity Intensity: % of length of 2nd leaf blade, preventive 24 h; for AUDPC: control 781.6
Protocol: as §1, §2, §3, §4, §5, §6, §7, §8, §9

[3] = test system: Zymoseptoria tritici strain Zt 61; assay: In planta preventive efficacy on wheat cv. Alixan against Zymoseptoria tritici strain Zt 61; parameters: fungicide efficacy: concentration or dose not given beside the values; conditions: for Disease Severity Intensity: % of length of 2nd leaf blade, preventive 24 h; for AUDPC: control 1194.9
Protocol: as §1, §2, §3, §4, §5, §6, §7, §8, §9

[4] = test system: Zymoseptoria tritici strain Zt 20; assay: In planta preventive efficacy on wheat cv. Alixan against Zymoseptoria tritici strain Zt 20; conditions: % of length of 2nd leaf blade, preventive 24 h
Protocol: as §1, §2, §3, §4, §5, §6, §7, §8, §9

[5] = test system: Zymoseptoria tritici strain Zt 19-52; assay: In planta preventive efficacy on wheat cv. Alixan against Zymoseptoria tritici strain Zt 19-52; conditions: % of length of 2nd leaf blade, preventive 24 h
Protocol: as §1, §2, §3, §4, §5, §6, §7, §8, §9

[6] = test system: Zymoseptoria tritici strain Zt 38-02; assay: In planta preventive efficacy on wheat cv. Alixan against Zymoseptoria tritici strain Zt 38-02; conditions: for Disease Severity Intensity: % of length of 2nd leaf blade, preventive 24 h; for AUDPC: control 1261.4
Protocol: as §1, §2, §3, §4, §5, §6, §7, §8, §9

[7] = rate N (g a.i./ha): ADF-16 100, penthiopyrad 200, metconazole 90, tebuconazole 250
[8] = rate N/2.5 (g a.i./ha): ADF-16 40, penthiopyrad 80, metconazole 36, tebuconazole 100
[9] = 15 dpi, rate N (g a.i./ha): ADF-16 100, penthiopyrad 200, metconazole 90, tebuconazole 250, control also no disease
[10] = 15 dpi, rate N/2.5 (g a.i./ha): ADF-16 40, penthiopyrad 80, metconazole 36, tebuconazole 100, control also no disease

CC(C)(C)C(O)(CCc1ccc(Cl)cc1)Cn1cncn1 (stereo not drawn) [Tebuconazole]
Disease Severity Intensity ([1]; 15 dpi, rate N (g a.i./ha): ADF-16 100, penthiopyrad 200, metconazole 90, tebuconazole 250, control 47.9): 0.0 +/− 0.0d % | Disease Severity Intensity ([1]; 15 dpi, rate N/2.5 (g a.i./ha): ADF-16 40, penthiopyrad 80, metconazole 36, tebuconazole 100, control 47.9): 0.0 +/− 0.0d % | Disease Severity Intensity ([1]; 21 dpi, rate N (g a.i./ha): ADF-16 100, penthiopyrad 200, metconazole 90, tebuconazole 250, control 81.0): 1.5 +/− 0.8f % | Disease Severity Intensity ([1]; 21 dpi, rate N/2.5 (g a.i./ha): ADF-16 40, penthiopyrad 80, metconazole 36, tebuconazole 100, control 81.0): 12.1 +/− 1.7e % | Disease Severity Intensity ([1]; 28 dpi, rate N (g a.i./ha): ADF-16 100, penthiopyrad 200, metconazole 90, tebuconazole 250, control 92.2): 12.8 +/− 2.5d % | Disease Severity Intensity ([1]; 28 dpi, rate N/2.5 (g a.i./ha): ADF-16 40, penthiopyrad 80, metconazole 36, tebuconazole 100, control 92.2): 58.7 +/− 4.6c % | Efficacy (from AUDPC, percentage of the untreated control) [1, 7]: 96.0% | AUDPC [1, 7]: 54.0 ± 3.3 g | Efficacy (from AUDPC, percentage of the untreated control) [1, 8]: 79.0% | AUDPC [1, 8]: 283.9 +/− 30.0f^ | Disease Severity Intensity [2, 9]: No disease | Disease Severity Intensity [2, 10]: No disease | Disease Severity Intensity ([2]; 21 dpi, rate N (g a.i./ha): ADF-16 100, penthiopyrad 200, metconazole 90, tebuconazole 250, control 36.5): 0.0 +/− 0.0b % | Disease Severity Intensity ([2]; 21 dpi, rate N/2.5 (g a.i./ha): ADF-16 40, penthiopyrad 80, metconazole 36, tebuconazole 100, control 36.5): 0.0 +/− 0.0b % | Disease Severity Intensity ([2]; 28 dpi, rate N (g a.i./ha): ADF-16 100, penthiopyrad 200, metconazole 90, tebuconazole 250, control 77.4): 0.0 +/− 0.0b % | Disease Severity Intensity ([2]; 28 dpi, rate N/2.5 (g a.i./ha): ADF-16 40, penthiopyrad 80, metconazole 36, tebuconazole 100, control 77.4): 0.0 +/− 0.0b % | Efficacy (from AUDPC, percentage of the untreated control) [2, 7]: 100% | AUDPC [2, 7]: 0.0 +/− 0.0b | Efficacy (from AUDPC, percentage of the untreated control) [2, 8]: 100% | AUDPC [2, 8]: 0.0 +/− 0.0b | Disease Severity Intensity [3, 9]: No disease | Disease Severity Intensity [3, 10]: No disease | Disease Severity Intensity ([3]; 21 dpi, rate N (g a.i./ha): ADF-16 100, penthiopyrad 200, metconazole 90, tebuconazole 250, control 63.3): 1.5 +/− 0.9d % | Disease Severity Intensity ([3]; 21 dpi, rate N/2.5 (g a.i./ha): ADF-16 40, penthiopyrad 80, metconazole 36, tebuconazole 100, control 63.3): 11.8 +/− 3.6c % | Disease Severity Intensity ([3]; 28 dpi, rate N (g a.i./ha): ADF-16 100, penthiopyrad 200, metconazole 90, tebuconazole 250, control 88.1): 30.7 +/− 5.3d % | Disease Severity Intensity ([3]; 28 dpi, rate N/2.5 (g a.i./ha): ADF-16 40, penthiopyrad 80, metconazole 36, tebuconazole 100, control 88.1): 54.3 +/− 6.2c % | fungicide efficacy ([3]; higher application rates (N)): ≥ 85% | fungicide efficacy ([3]; lower application rates (N/2.5)): ≤ 70% | Efficacy (from AUDPC, percentage of the untreated control) [3, 7]: 89.5% | AUDPC [3, 7]: 125.1 ± 46.8 days | Efficacy (from AUDPC, percentage of the untreated control) [3, 8]: 70.3% | AUDPC [3, 8]: 354.9 +/− 103.8bc | Disease Severity Intensity [4, 9]: No disease | Disease Severity Intensity [4, 10]: No disease | Disease Severity Intensity ([4]; 21 dpi, rate N (g a.i./ha): ADF-16 100, penthiopyrad 200, metconazole 90, tebuconazole 250, control 77.2): 0.6 +/− 0.5de % | Disease Severity Intensity ([4]; 21 dpi, rate N/2.5 (g a.i./ha): ADF-16 40, penthiopyrad 80, metconazole 36, tebuconazole 100, control 77.2): 4.6 +/− 1.3c % | Disease Severity Intensity ([4]; 28 dpi, rate N (g a.i./ha): ADF-16 100, penthiopyrad 200, metconazole 90, tebuconazole 250, control 95.5): 17.1 +/− 1.9e % | Disease Severity Intensity ([4]; 28 dpi, rate N/2.5 (g a.i./ha): ADF-16 40, penthiopyrad 80, metconazole 36, tebuconazole 100, control 95.5): 54.8 +/− 3.7c % | Disease Severity Intensity ([5]; 15 dpi, rate N (g a.i./ha): ADF-16 100, penthiopyrad 200, metconazole 90, tebuconazole 250, control 22.0): 0.0 +/− 0.0b % | Disease Severity Intensity ([5]; 15 dpi, rate N/2.5 (g a.i./ha): ADF-16 40, penthiopyrad 80, metconazole 36, tebuconazole 100, control 22.0): 0.0 +/− 0.0b % | Disease Severity Intensity ([5]; 21 dpi, rate N (g a.i./ha): ADF-16 100, penthiopyrad 200, metconazole 90, tebuconazole 250, control 81.7): 0.2 +/− 0.2c % | Disease Severity Intensity ([5]; 21 dpi, rate N/2.5 (g a.i./ha): ADF-16 40, penthiopyrad 80, metconazole 36, tebuconazole 100, control 81.7): 0.7 +/− 0.4bc % | Disease Severity Intensity ([5]; 28 dpi, rate N (g a.i./ha): ADF-16 100, penthiopyrad 200, metconazole 90, tebuconazole 250, control 91.0): 7.9 +/− 2.2cd % | Disease Severity Intensity ([5]; 28 dpi, rate N/2.5 (g a.i./ha): ADF-16 40, penthiopyrad 80, metconazole 36, tebuconazole 100, control 91.0): 13.1 +/− 2.3c % | Disease Severity Intensity ([6]; 15 dpi, rate N (g a.i./ha): ADF-16 100, penthiopyrad 200, metconazole 90, tebuconazole 250, control 36.0): 0.0 +/− 0.0b % | Disease Severity Intensity ([6]; 15 dpi, rate N/2.5 (g a.i./ha): ADF-16 40, penthiopyrad 80, metconazole 36, tebuconazole 100, control 36.0): 0.0 +/− 0.0b % | Disease Severity Intensity ([6]; 21 dpi, rate N (g a.i./ha): ADF-16 100, penthiopyrad 200, metconazole 90, tebuconazole 250, control 84.3): 9.3 +/− 1.9e % | Disease Severity Intensity ([6]; 21 dpi, rate N/2.5 (g a.i./ha): ADF-16 40, penthiopyrad 80, metconazole 36, tebuconazole 100, control 84.3): 62.2 +/− 4.5bc % | Disease Severity Intensity ([6]; 28 dpi, rate N (g a.i./ha): ADF-16 100, penthiopyrad 200, metconazole 90, tebuconazole 250, control 95.7): 45.1 +/− 4.0d % | Disease Severity Intensity ([6]; 28 dpi, rate N/2.5 (g a.i./ha): ADF-16 40, penthiopyrad 80, metconazole 36, tebuconazole 100, control 95.7): 93.3 +/− 0.9ab % | Efficacy (from AUDPC, percentage of the untreated control) [6, 7]: 82.7% | AUDPC [6, 7]: 218.1 ± 3.5 days | Efficacy (from AUDPC, percentage of the untreated control) [6, 8]: 42.3% | AUDPC [6, 8]: 728.1 +/− 31.6b
